Data published in patent US20240409585A1, “MACROCYCLIC IMMUNOMODULATORS” (priority 2021, published 2024).
Bridge positions count the residues as written; N and C are the ends. Square brackets hold non-standard residues; d marks the D form. Peptide text beside a SMILES is read from it. * marks the point of attachment. ξ: configuration not given here. Bip = N[C@@H](Cc1ccc(-c2ccccc2)cc1)C(=O)O; Phe(3-Me) = Cc1cccc(C[C@H](N)C(=O)O)c1; Val(3-OH) = CC(C)(O)[C@H](N)C(=O)O; 4Pal = N[C@@H](Cc1ccncc1)C(=O)O; 2Thi = N[C@@H](Cc1cccs1)C(=O)O; Cha = N[C@@H](CC1CCCCC1)C(=O)O; Cit = NC(=O)NCCC[C@H](N)C(=O)O; Ile(3ξ) = CCC(C)[C@H](N)C(=O)O; Thr(3ξ) = CC(O)[C@H](N)C(=O)O; Carboxymethyl = O=C(O)C*; NMeA = CN[C@@H](C)C(=O)O; Dab = NCC[C@H](N)C(=O)O; Dap = NC[C@H](N)C(=O)O

Biological target: T1, PE-labeled human PD-L1-Ig binding to Jurkat cell line over-expressing human PD-1 (Jurkat-PD-1) (Homo sapiens, UniProt Q15116)
T1 construct: expressed in transfected cells; host or cells: Jurkat
Assay: Jurkat-PD-1 Cell Binding High-Content Screening Assay (CBA): Method 1
Settings: Jurkat-hPD-1 cells, PE-labeled PD-L1-Ig 20 nM final; read-out: Jurkat HPDL1 PD1 IC50 (uM) (Method 1)
Method: Phycoerythrin (PE) was covalently linked to the Ig epitope tag of human PD-L1-Ig and fluorescently-labeled PD-L1-Ig was used for binding studies with a Jurkat cell line over-expressing human PD-1 (Jurkat-PD-1). Briefly, 8×10^3 Jurkat-hPD-1 cells were seeded into 384 well plates in 20 μl of DMEM supplemented with 10% fetal calf serum. 100 nl of compound was added to cells followed by incubation at 37° C. for 2 hours. Then, 5 μl of PE-labeled PD-L1-Ig (20 nM final), diluted in DMEM supplemented with 10% fetal calf serum. […] Data was collected and processed using a Cell Insight NXT High Content Imager and associated software.

T1 sequence (Q15116 25-288): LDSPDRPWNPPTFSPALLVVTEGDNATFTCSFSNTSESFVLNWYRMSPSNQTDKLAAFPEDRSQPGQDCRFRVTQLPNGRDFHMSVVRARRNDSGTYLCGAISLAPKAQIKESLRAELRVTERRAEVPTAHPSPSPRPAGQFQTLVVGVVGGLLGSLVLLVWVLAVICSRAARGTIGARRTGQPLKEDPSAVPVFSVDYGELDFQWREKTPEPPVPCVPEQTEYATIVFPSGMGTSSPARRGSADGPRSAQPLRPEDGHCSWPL

| Structure (SMILES) | IC50 [µM] |
| --- | --- |
| Cc1cccc(C[C@@H]2NC(=O)[C@H](CC(=O)O)NC(=O)[C@H](Cc3ccc(OCC(=O)O)cc3)NC(=O)[C@H](C(C)C)NC(=O)CSC[C@@H](C(=O)N[C@@H](CN)C(N)=O)NC(=O)[C@H](C(C)O)NC(=O)[C@H](C(C)(C)O)NC(=O)[C@H](CC3CCCCC3)NC(=O)[C@H](CCN)NC(=O)[C@@H](CC(C)C)NC(=O)[C@H](C)N(C)C(=O)[C@H](CCCNC(N)=O)NC(=O)[C@H](Cc3ccc(-c4ccccc4)cc3)NC(=O)[C@H](Cc3ccc(OCC(=O)O)cc3)NC2=O)c1 (stereo partly drawn) [Compound 2167] ({CH2CO}-VY(Carboxymethyl)D[Phe(3-Me)]Y(Carboxymethyl)[Bip][Cit][NMeA][dL][Dab][Cha][Val(3-OH)][Thr(3ξ)]C[Dap]-NH2; thioether N-14) | 0.05 |
| CCC(C)[C@@H]1NC(=O)[C@H](Cc2ccc(-c3ccccc3)cc2)NC(=O)[C@H](C(C)C)NC(=O)[C@H](Cc2c[nH]c3ccccc23)NC(=O)[C@H](CC(=O)O)NC(=O)[C@H](Cc2ccc(O)cc2)NC(=O)[C@H](Cc2cccs2)NC(=O)CSC[C@@H](C(=O)N[C@@H](CCCNC(=N)N)C(N)=O)NC(=O)[C@H](C(C)O)NC(=O)[C@H](C(C)(C)O)NC(=O)[C@H](CC2CCCCC2)NC(=O)[C@H](CC(N)=O)NC(=O)[C@@H](CC(C)C)NC(=O)[C@H](C)N(C)C1=O (stereo partly drawn) [Compound 2172] ({CH2CO}-[2Thi]YDWV[Bip][Ile(3ξ)][NMeA][dL]N[Cha][Val(3-OH)][Thr(3ξ)]CR-NH2; thioether N-14) | 0.08 |
| CCC(C)[C@@H]1NC(=O)[C@H](Cc2ccc(-c3ccccc3)cc2)NC(=O)[C@H](C(C)C)NC(=O)[C@H](Cc2c[nH]c3ccccc23)NC(=O)[C@H](CC(=O)O)NC(=O)[C@H](Cc2ccc(O)cc2)NC(=O)[C@H](CCN)NC(=O)CSC[C@@H](C(=O)N[C@H](C(N)=O)C(C)C)NC(=O)[C@H](C(C)O)NC(=O)[C@H](C(C)(C)O)NC(=O)[C@H](CC2CCCCC2)NC(=O)[C@H](CC(N)=O)NC(=O)[C@@H](CC(C)C)NC(=O)[C@H](C)N(C)C1=O (stereo partly drawn) [Compound 2173] ({CH2CO}-[Dab]YDWV[Bip][Ile(3ξ)][NMeA][dL]N[Cha][Val(3-OH)][Thr(3ξ)]CV-NH2; thioether N-14) | 0.19 |

Results, then the compound that gave them:

| IC50 [µM] | Structure (SMILES) |
| --- | --- |
| 0.03 | Cc1cccc(C[C@@H]2NC(=O)[C@H](CC(=O)O)NC(=O)[C@H](Cc3ccc(OCC(=O)O)cc3)NC(=O)[C@H](Cc3ccncc3)NC(=O)CSC[C@@H](C(=O)N[C@@H](CN)C(N)=O)NC(=O)[C@H](C(C)O)NC(=O)[C@H](C(C)(C)O)NC(=O)[C@H](CC3CCCCC3)NC(=O)[C@H](CCN)NC(=O)[C@@H](CC(C)C)NC(=O)[C@H](C)N(C)C(=O)[C@H](CCCNC(N)=O)NC(=O)[C@H](Cc3ccc(-c4ccccc4)cc3)NC(=O)[C@H](Cc3ccc(OCC(=O)O)cc3)NC2=O)c1 (stereo partly drawn) [Compound 2168] ({CH2CO}-[4Pal]Y(Carboxymethyl)D[Phe(3-Me)]Y(Carboxymethyl)[Bip][Cit][NMeA][dL][Dab][Cha][Val(3-OH)][Thr(3ξ)]C[Dap]-NH2; thioether N-14) |
| 0.01 | Cc1cccc(C[C@@H]2NC(=O)[C@H](CC(=O)O)NC(=O)[C@H](Cc3ccc(OCC(=O)O)cc3)NC(=O)[C@H](Cc3cccs3)NC(=O)CSC[C@@H](C(=O)N[C@@H](CN)C(N)=O)NC(=O)[C@H](C(C)O)NC(=O)[C@H](C(C)(C)O)NC(=O)[C@H](CC3CCCCC3)NC(=O)[C@H](CCN)NC(=O)[C@@H](CC(C)C)NC(=O)[C@H](C)N(C)C(=O)[C@H](CCCNC(N)=O)NC(=O)[C@H](Cc3ccc(-c4ccccc4)cc3)NC(=O)[C@H](Cc3ccc(OCC(=O)O)cc3)NC2=O)c1 (stereo partly drawn) [Compound 2169] ({CH2CO}-[2Thi]Y(Carboxymethyl)D[Phe(3-Me)]Y(Carboxymethyl)[Bip][Cit][NMeA][dL][Dab][Cha][Val(3-OH)][Thr(3ξ)]C[Dap]-NH2; thioether N-14) |
